What was measured:
Test in all cases: biochemical
Type in all cases: biochemical
[1] = biological target: T1, 382 unique human kinases (Homo sapiens, UniProt Q07912); settings: ACK1, [ATP] 100 µM, compound 10 uM; for remaining activity at 10 µM: read-out: % Enzyme Activity (relative to DMSO controls)
T1 construct: purchased Reaction Biology (HotSpot contract assay)

[2] = biological target: T2, 382 unique human kinases (Homo sapiens, UniProt Q15119); settings: PDK2/PDHK2, [ATP] 15 µM
T2 construct: purchased Reaction Biology (HotSpot contract assay)

[3] = biological target: T3, 382 unique human kinases (Homo sapiens, UniProt O00238); settings: kinase ALK6/BMPR1B, compound 10 uM; for remaining activity at 10 µM: read-out: % Enzyme Activity (relative to DMSO controls)
T3 construct: purchased Reaction Biology (HotSpot contract assay)

[4] = biological target: T4, 382 unique human kinases (Homo sapiens, UniProt O43353); settings: RIPK2, 10 uM; for remaining activity at 10 µM: read-out: % Enzyme Activity (relative to DMSO controls)
T4 construct: purchased Reaction Biology (HotSpot contract assay)

[5] = biological target: T5, 382 unique human kinases (Homo sapiens, UniProt P42679); settings: kinase CTK/MATK, compound 10 uM; for remaining activity at 10 µM: read-out: % Enzyme Activity (relative to DMSO controls)
T5 construct: purchased Reaction Biology (HotSpot contract assay)
T5 sequence (P42679 1-507): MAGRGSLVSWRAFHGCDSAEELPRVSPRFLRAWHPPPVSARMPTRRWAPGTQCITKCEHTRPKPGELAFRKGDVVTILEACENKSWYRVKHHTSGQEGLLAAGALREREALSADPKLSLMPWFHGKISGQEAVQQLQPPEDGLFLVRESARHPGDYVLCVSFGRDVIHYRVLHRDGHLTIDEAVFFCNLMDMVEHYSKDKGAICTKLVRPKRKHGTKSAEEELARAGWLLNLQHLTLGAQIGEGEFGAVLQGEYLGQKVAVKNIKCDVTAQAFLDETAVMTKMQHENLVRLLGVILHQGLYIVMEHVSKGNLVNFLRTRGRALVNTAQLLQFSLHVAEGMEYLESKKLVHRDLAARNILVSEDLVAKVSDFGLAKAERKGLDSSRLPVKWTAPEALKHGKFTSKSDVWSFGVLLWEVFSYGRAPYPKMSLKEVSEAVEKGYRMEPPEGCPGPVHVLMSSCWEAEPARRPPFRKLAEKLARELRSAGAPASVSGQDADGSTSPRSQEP

[6] = biological target: T6, 382 unique human kinases (Homo sapiens, UniProt Q13237); settings: PKG2/PRKG2; compound at 10 uM; duplicate values; read-out: % Enzyme Activity (relative to DMSO controls)
T6 construct: purchased Reaction Biology (HotSpot contract assay)

[7] = biological target: T7, 382 unique human kinases (Homo sapiens, UniProt Q16566); settings: kinase CAMK4, compound 10 uM; for remaining activity at 10 µM: read-out: % Enzyme Activity (relative to DMSO controls)
T7 construct: purchased Reaction Biology (HotSpot contract assay)
T7 sequence (Q16566 1-473): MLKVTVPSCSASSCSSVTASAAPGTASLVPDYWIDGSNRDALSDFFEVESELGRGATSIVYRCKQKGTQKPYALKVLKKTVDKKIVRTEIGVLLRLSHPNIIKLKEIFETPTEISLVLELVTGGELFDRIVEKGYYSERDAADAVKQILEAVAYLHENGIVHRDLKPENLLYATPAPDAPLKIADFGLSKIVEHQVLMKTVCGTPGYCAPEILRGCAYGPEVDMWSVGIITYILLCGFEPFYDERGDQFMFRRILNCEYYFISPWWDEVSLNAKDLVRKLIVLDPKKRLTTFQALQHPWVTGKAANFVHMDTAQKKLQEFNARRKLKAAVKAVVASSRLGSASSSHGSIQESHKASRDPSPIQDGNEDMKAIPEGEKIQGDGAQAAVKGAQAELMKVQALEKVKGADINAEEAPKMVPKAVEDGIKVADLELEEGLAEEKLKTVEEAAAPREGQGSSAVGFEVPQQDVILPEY

[8] = biological target: T8, 382 unique human kinases (Homo sapiens, UniProt Q8TF76); settings: Haspin, 10 uM; for remaining activity at 10 µM: read-out: % Enzyme Activity (relative to DMSO controls)
T8 construct: purchased Reaction Biology (HotSpot contract assay)
T8 sequence (Q8TF76 1-798): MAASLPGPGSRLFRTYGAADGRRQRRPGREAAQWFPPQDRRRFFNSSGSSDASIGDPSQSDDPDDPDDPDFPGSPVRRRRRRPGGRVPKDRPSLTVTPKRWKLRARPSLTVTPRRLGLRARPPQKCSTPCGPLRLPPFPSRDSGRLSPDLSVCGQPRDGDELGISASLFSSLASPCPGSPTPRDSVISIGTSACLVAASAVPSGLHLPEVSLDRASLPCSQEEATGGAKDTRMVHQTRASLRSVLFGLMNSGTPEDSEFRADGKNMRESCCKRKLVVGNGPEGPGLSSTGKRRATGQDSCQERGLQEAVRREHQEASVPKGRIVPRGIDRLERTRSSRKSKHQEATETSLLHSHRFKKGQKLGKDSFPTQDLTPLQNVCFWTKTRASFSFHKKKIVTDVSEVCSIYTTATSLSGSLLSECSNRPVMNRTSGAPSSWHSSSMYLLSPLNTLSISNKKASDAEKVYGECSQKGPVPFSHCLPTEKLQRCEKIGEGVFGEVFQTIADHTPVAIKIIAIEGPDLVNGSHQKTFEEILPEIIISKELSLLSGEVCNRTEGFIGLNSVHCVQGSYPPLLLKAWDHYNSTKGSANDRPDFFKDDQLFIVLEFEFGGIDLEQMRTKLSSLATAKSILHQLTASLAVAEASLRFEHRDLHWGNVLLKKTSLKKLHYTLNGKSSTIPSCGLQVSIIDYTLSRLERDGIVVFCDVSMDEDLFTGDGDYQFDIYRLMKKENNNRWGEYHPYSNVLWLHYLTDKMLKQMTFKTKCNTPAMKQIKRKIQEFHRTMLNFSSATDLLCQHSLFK

[9] = biological target: T9, 382 unique human kinases (Homo sapiens, UniProt Q92918); settings: kinase HPK1/MAP4K1, compound 10 uM; for remaining activity at 10 µM: read-out: % Enzyme Activity (relative to DMSO controls)
T9 construct: purchased Reaction Biology (HotSpot contract assay)

[10] = biological target: T10, 382 unique human kinases (Homo sapiens, UniProt Q9NWZ3); settings: kinase IRAK4, compound 10 uM; for remaining activity at 10 µM: read-out: % Enzyme Activity (relative to DMSO controls)
T10 construct: purchased Reaction Biology (HotSpot contract assay)
T10 sequence (Q9NWZ3 1-460): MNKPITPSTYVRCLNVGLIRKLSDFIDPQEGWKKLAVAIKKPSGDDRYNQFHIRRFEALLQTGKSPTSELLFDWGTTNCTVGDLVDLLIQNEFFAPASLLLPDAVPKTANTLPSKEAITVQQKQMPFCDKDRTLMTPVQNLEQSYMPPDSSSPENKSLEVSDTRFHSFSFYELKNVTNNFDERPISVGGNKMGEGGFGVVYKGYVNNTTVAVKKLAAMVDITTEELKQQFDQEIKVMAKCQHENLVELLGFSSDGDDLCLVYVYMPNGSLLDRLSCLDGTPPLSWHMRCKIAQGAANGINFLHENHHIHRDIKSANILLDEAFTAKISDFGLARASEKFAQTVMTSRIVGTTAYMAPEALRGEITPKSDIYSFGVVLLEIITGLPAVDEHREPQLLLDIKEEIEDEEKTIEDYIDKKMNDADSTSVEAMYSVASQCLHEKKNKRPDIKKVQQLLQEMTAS

[11] = compound 10 uM, read-out: % Enzyme Activity (relative to DMSO controls)

T4 sequence (O43353 whole entry): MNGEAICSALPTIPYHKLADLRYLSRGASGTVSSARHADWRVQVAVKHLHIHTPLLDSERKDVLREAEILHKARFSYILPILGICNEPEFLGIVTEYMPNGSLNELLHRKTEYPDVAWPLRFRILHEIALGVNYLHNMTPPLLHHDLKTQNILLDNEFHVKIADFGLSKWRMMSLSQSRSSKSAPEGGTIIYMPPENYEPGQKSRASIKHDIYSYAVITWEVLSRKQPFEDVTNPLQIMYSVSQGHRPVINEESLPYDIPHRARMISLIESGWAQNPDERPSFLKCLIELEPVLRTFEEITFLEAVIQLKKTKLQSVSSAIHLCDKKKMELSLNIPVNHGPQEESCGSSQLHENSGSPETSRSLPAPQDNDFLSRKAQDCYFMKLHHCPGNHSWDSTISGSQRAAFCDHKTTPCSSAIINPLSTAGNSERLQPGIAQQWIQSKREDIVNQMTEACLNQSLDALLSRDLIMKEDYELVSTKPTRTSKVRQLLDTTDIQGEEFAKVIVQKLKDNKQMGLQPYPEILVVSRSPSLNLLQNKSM
T1 sequence (Q07912 whole entry): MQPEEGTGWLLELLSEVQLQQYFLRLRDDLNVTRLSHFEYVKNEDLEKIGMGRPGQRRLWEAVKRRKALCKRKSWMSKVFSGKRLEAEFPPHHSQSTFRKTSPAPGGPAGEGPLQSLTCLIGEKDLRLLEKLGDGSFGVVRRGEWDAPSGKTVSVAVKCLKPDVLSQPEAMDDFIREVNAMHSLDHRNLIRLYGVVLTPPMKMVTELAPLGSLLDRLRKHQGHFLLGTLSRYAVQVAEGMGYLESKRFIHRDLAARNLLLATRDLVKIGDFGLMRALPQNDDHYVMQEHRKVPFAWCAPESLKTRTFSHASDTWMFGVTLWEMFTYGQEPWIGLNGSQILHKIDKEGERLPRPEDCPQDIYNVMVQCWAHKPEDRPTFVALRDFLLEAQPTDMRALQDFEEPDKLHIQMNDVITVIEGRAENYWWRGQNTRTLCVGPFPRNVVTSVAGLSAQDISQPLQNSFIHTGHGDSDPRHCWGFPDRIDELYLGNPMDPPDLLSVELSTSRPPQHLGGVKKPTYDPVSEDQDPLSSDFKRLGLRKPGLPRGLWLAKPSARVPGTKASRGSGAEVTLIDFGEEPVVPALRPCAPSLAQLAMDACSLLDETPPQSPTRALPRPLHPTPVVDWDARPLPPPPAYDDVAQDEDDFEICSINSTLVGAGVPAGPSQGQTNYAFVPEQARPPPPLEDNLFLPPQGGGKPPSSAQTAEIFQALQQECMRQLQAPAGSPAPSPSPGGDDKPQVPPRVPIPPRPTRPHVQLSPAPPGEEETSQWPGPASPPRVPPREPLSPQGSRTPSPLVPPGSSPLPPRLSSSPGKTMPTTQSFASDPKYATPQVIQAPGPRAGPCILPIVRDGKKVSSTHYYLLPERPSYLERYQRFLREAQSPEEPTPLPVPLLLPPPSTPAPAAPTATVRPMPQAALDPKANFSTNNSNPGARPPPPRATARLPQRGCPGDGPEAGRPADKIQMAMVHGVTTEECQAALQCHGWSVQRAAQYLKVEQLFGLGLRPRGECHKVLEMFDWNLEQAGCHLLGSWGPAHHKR
T9 sequence (Q92918 whole entry): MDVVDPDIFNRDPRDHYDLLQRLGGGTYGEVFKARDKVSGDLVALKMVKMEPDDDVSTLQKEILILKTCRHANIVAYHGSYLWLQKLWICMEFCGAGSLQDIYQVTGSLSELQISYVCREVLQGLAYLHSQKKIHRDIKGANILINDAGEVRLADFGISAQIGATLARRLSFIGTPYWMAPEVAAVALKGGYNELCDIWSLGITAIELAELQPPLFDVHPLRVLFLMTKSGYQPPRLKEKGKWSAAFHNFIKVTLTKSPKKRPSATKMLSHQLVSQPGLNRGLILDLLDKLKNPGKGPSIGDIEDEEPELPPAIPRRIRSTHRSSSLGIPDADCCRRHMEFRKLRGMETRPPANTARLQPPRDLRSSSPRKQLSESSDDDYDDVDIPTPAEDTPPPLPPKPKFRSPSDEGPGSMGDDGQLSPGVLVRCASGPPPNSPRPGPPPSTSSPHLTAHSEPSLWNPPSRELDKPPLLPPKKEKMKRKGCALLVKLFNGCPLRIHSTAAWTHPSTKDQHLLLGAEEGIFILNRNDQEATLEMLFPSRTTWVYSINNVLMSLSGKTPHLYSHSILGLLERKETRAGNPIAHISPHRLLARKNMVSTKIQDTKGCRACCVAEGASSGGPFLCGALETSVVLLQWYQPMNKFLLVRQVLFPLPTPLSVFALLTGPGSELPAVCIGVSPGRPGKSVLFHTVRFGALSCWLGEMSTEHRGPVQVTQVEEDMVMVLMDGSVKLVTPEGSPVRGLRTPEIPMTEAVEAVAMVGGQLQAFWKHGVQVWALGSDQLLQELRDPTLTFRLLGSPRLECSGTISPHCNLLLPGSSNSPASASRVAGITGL
T3 sequence (O00238 14-502): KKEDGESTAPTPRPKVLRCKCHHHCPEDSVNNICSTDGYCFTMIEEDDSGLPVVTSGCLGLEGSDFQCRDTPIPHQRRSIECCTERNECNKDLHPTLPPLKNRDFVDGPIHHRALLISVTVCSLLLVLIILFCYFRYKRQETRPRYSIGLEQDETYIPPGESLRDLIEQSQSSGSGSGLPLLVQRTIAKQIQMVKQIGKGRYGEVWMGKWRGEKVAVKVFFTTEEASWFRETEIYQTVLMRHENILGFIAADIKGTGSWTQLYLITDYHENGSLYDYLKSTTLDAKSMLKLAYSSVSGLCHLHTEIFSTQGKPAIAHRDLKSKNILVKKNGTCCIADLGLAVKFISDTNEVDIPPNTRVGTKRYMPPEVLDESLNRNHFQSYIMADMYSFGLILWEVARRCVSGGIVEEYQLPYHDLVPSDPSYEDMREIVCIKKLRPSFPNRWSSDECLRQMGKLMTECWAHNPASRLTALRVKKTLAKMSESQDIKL
T6 sequence (Q13237 whole entry): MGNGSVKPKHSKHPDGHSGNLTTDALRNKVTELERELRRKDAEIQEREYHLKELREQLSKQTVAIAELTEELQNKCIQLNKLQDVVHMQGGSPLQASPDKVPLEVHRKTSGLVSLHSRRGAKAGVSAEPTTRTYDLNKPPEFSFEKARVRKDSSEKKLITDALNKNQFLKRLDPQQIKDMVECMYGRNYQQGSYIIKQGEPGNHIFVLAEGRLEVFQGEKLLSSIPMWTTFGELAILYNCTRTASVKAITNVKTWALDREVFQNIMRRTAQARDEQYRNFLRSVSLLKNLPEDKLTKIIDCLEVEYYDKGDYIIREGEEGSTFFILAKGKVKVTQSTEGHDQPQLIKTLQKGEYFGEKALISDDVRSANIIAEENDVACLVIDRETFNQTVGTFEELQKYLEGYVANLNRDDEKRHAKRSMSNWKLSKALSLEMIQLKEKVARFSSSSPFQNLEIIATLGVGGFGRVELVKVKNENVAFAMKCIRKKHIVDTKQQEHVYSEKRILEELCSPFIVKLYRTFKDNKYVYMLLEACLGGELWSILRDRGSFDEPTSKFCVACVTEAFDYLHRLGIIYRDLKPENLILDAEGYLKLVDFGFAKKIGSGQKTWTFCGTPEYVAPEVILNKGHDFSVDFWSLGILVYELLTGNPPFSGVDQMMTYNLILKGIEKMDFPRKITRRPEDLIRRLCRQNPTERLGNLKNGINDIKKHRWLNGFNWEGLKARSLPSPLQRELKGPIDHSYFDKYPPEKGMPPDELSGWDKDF

| Compound | % Enzyme Activity (relative to DMSO controls) [1] [%] | remaining activity at 10 µM [1] [%] | % Enzyme Activity (relative to DMSO controls) ([2]; compound 10 uM) [%] | remaining activity at 10 µM [2, 11] [%] | remaining activity at 10 µM [3] [%] | remaining activity at 10 µM [4] [%] | remaining activity at 10 µM [5] [%] | remaining activity at 10 µM [6] [%] | remaining activity at 10 µM [7] [%] | remaining activity at 10 µM [8] [%] | remaining activity at 10 µM [9] [%] | remaining activity at 10 µM [10] [%] | % Enzyme Activity (relative to DMSO controls) [3] [%] | % Enzyme Activity (relative to DMSO controls) [4] [%] | % Enzyme Activity (relative to DMSO controls) [5] [%] | % Enzyme Activity (relative to DMSO controls) [7] [%] | % Enzyme Activity (relative to DMSO controls) [8] [%] | % Enzyme Activity (relative to DMSO controls) [9] [%] | % Enzyme Activity (relative to DMSO controls) [10] [%] | remaining activity at 1 µM ([2]; compound 1 uM, read-out: % Enzyme Activity (relative to DMSO controls)) [%] |
| --- | --- | --- | --- | --- | --- | --- | --- | --- | --- | --- | --- | --- | --- | --- | --- | --- | --- | --- | --- | --- |
| CCNC(=O)c1noc(-c2cc(C(C)C)c(O)cc2O)c1-c1ccc(CN2CCOCC2)cc1 [Luminespib] | 88.83 | 89.5 | 20.58 | 22.4 |  |  |  |  |  |  |  |  |  |  |  |  |  |  |  |  |
| CC(C)c1cc(-c2n[nH]c(=O)n2-c2ccc3c(ccn3C)c2)c(O)cc1O [Ganetespib (STA9090)] |  |  |  |  | 94.5 | 71.3 | 80 | 108 | 91 | 75.3 | 97.5 | 81.5 |  |  |  |  |  |  |  |  |
| CCNC(=O)c1noc(-c2cc(C(C)C)c(O)cc2O)c1-c1ccc(CN2CCOCC2)cc1 [Luminespib (AUY-922)] |  |  |  |  | 94.8 | 112 | 83.5 | 104 | 93.7 | 93 | 121 | 118 | 93.58 | 109.60 | 80.99 | 90.30 | 89.64 | 120.08 | 106.93 |  |
| CC(C)c1cc(-c2n[nH]c(=O)n2-c2ccc3c(ccn3C)c2)c(O)cc1O [Ganetespib] |  | 47 |  | 11.2 |  |  |  |  |  |  |  |  |  |  |  |  |  |  |  | 41.9 |

Source: publication PMC8550792, “Evolution of kinase polypharmacology across HSP90 drug discovery” (Cell Chemical Biology, 2021)
